Test results from PubChem BioAssay (NCI).
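Protocol summary: plate cells (96-well), add compound at 5 concentrations, incubate 48 h, interpolate endpoints linearly. TGI: total growth inhibition.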

Assays:
Test in all cases: NCI tumour cell line growth inhibition, 48 h
[1] = test system: HCT-15 colon
[2] = test system: SN12C renal
[3] = test system: MOLT-4 leukemia
[4] = test system: OVCAR-8 ovarian
[5] = test system: LOX IMVI melanoma
[6] = test system: SW-620 colon
[7] = test system: HOP-62 NSCLC
[8] = test system: SK-OV-3 ovarian
[9] = test system: NCI-H23 lung
[10] = test system: HT29 colon
[11] = test system: SK-MEL-28 melanoma
[12] = test system: RXF 393 renal
[13] = test system: P388/ADR leukemia
[14] = test system: NCI-H226 lung
[15] = test system: SF-295 CNS
[16] = test system: UACC-62 melanoma
[17] = test system: OVCAR-3 ovarian
[18] = test system: A549 NSCLC
[19] = test system: SK-MEL-5 melanoma
[20] = test system: K-562 leukemia
[21] = test system: HCT-116 colon
[22] = test system: U251 CNS
[23] = test system: CAKI-1 renal
[24] = test system: DMS 273 small cell lung
[25] = test system: OVCAR-5 ovarian
[26] = test system: NCI-H522 lung
[27] = test system: P388 leukemia
[28] = test system: IGROV1 ovarian
[29] = test system: KM12 colon
[30] = test system: SNB-75 CNS
[31] = test system: HCC-2998 colon
[32] = test system: MALME-3M melanoma
[33] = test system: HL-60(TB) leukemia
[34] = test system: SK-MEL-2 melanoma
[35] = test system: SF-268 CNS
[36] = test system: RPMI-8226 leukemia
[37] = test system: HOP-18 NSCLC
[38] = test system: HOP-92 NSCLC
[39] = test system: SNB-19 CNS
[40] = test system: A498 renal
[41] = test system: MCF7 breast
[42] = test system: DMS 114 small cell lung
[43] = test system: NCI/ADR-RES ovarian
[44] = test system: OVCAR-4 ovarian
[45] = test system: EKVX NSCLC
[46] = test system: UACC-257 melanoma
[47] = test system: M19-MEL melanoma
[48] = test system: XF 498 CNS
[49] = test system: SF-539 CNS
[50] = test system: CCRF-CEM leukemia
[51] = test system: UO-31 renal
[52] = test system: SNB-78 CNS
[53] = test system: COLO 205 colon
[54] = test system: NCI-H460 lung
[55] = test system: DLD-1 colon
[56] = test system: KM20L2 colon
[57] = test system: SN12K1 renal

## CCC(C(C)N1CC(=O)NC(=O)C1)N1CC(=O)NC(=O)C1 (configuration not stated)
[1]
  TGI: > 100 µM
[2]
  TGI: > 100 µM
[3]
  TGI: > 100 µM
[4]
  TGI: > 100 µM
[5]
  TGI: > 100 µM
[6]
  TGI: > 100 µM
[7]
  TGI: > 100 µM
[8]
  TGI: > 100 µM
[9]
  TGI: > 100 µM
[10]
  TGI: > 100 µM
[11]
  TGI: > 100 µM
[12]
  TGI: > 100 µM
[13]
  TGI: > 100 µM
[14]
  TGI: > 100 µM
[15]
  TGI: > 100 µM
[16]
  TGI: > 100 µM
[17]
  TGI: > 100 µM
[18]
  TGI: > 100 µM
[19]
  TGI: > 100 µM
[20]
  TGI: > 100 µM
[21]
  TGI: > 100 µM
[22]
  TGI: > 100 µM
[23]
  TGI: > 100 µM
[24]
  TGI: > 100 µM
[25]
  TGI: > 100 µM
[26]
  TGI: > 63.5 µM
[27]
  TGI: > 75.9 µM
[28]
  TGI: > 100 µM
[29]
  TGI: > 100 µM
[30]
  TGI: > 100 µM
[31]
  TGI: > 100 µM
[32]
  TGI: > 100 µM
[33]
  TGI: > 100 µM
[34]
  TGI: > 100 µM
[35]
  TGI: > 100 µM
[36]
  TGI: > 100 µM
[37]
  TGI: > 100 µM
[38]
  TGI: > 100 µM
[39]
  TGI: > 100 µM
[40]
  TGI: > 100 µM
[41]
  TGI: > 100 µM
[42]
  TGI: > 95 µM
[43]
  TGI: > 100 µM
[44]
  TGI: > 100 µM
[45]
  TGI: > 30 µM
[46]
  TGI: > 100 µM
[47]
  TGI: > 100 µM
[48]
  TGI: > 100 µM
[49]
  TGI: > 100 µM
[50]
  TGI: > 100 µM
[51]
  TGI: > 100 µM
[52]
  TGI: > 100 µM
[53]
  TGI: > 27.9 µM
[54]
  TGI: > 100 µM
[55]
  TGI: > 100 µM
[56]
  TGI: > 100 µM
[57]
  TGI: > 100 µM
